Several values for one entry are separate records, joined by “and”; a condition that tells them apart may be missing. Equal values may be shown once.

The target in the experiment is SARS-CoV-2 3CL protease (Severe acute respiratory syndrome coronavirus 2, UniProt P0DTD1). Kind of experiment: biochemical. The following applies: IC50.
Turning to `COc1ccc(Nc2cc(=O)n(Cc3ccc[nH]c3=O)c(=O)n2Cc2cc(F)c(F)c(F)c2)cc1` [Compound I-0326], inhibition was half-maximal at 65 nM (IC50).
Molecule `Cn1cc2cc(Nc3nc(=O)n(-c4cnc5ccccn45)c(=O)n3Cc3ccc(F)c(C#N)c3)c(Cl)cc2n1` [II-0488] yielded a half-inhibitory concentration (IC50) of under 100 nM.
Then `Cn1cc2cc(Nc3nc(=O)n(Cc4ccc[nH]c4=O)c(=O)n3Cc3cc(F)cc(C#N)c3)c(Cl)cc2n1` [Compound I-0268], with under 100 nM.
Then `COc1ccc(Nc2nc(=O)n(Cc3cc(C(=O)NCc4ccn(C)n4)c[nH]c3=O)c(=O)n2Cc2cc(F)c(F)c(F)c2)cc1` [II-0325], with under 100 nM; and `CNc1cncc(-n2c(=O)nc(Nc3ccc4c(c3)CCO4)n(Cc3cc(F)c(F)cc3F)c2=O)c1` [II-0612], with under 100 nM; and `Cc1ccc(Cl)cc1Cn1c(NC23CC(Nc4ncccn4)(C2)C3)nc(=O)n(Cc2ccncc2C)c1=O` [II-0630], with under 100 nM.
The molecule `Cn1cnc(Cn2c(=O)nc(Nc3cc4cn(CC(=O)NC5CC5)nc4cc3Cl)n(Cc3cc(Cl)c(F)cc3F)c2=O)n1` [II-0148] displayed an IC50 of under 100 nM.
`Cn1cc(Nc2nc(=O)n(Cc3ccc[nH]c3=O)c(=O)n2Cc2cc(F)c(F)c(F)c2)c(Cl)cc1=O` [Compound I-0244] registered an IC50 of under 100 nM.
`Cc1nc2cc(Cl)c(Nc3nc(=O)n(Cc4ccc[nH]c4=O)c(=O)n3Cc3cc(F)c(F)c(F)c3)cc2n1CC(C)(C)O` [Compound I-0445] came in with an IC50 of under 100 nM.
`O=c1[nH]cccc1Cn1c(=O)nc(NC2CCc3[nH]ncc3C2)n(Cc2cc(F)c(F)c(F)c2)c1=O` (racemic) [Compound I-0208]: the IC50 is 230 nM and 100 to 1000 nM.
Turning to `CCOC(=O)c1cc(F)c(F)cc1Cn1c(Nc2cc3cn(C)nc3cc2Cl)nc(=O)n(Cc2ncn(C)n2)c1=O` [II-0636], the IC50 was under 100 nM.
Then `Cc1cncc(-n2c(=O)nc(Nc3cc4cn(CCN)nc4cc3Cl)n(Cc3cc(Cl)ccc3Cl)c2=O)c1` [II-0611], with under 100 nM.
On to `Cn1cnc(Cn2c(=O)nc(Nc3cc4cn(CC(=O)NC5CC5)nc4cc3Cl)n(Cc3cc(F)c(F)c(Cl)c3)c2=O)n1` [II-0152], for which the IC50 is under 100 nM.
`CN(C)CCn1cc2cc(Nc3nc(=O)n(Cc4ccc[nH]c4=O)c(=O)n3Cc3cc(F)c(F)c(F)c3)c(Cl)cc2n1` [Compound I-0427] registered an IC50 of under 100 nM.
In the case of `O=c1[nH]cccc1Cn1c(=O)nc(NC2CC(F)(F)C2)n(Cc2cc(F)c(F)c(F)c2)c1=O` [II-0231], the IC50 amounted to 880 nM.
In turn, `O=c1[nH]cccc1Cn1c(=O)nc(NC23CC(Nc4ncc(C(F)(F)F)cn4)(C2)C3)n(Cc2cc(F)c(F)c(F)c2)c1=O` [II-0456] came in with an IC50 of under 100 nM.
With `CC(=O)Nc1ccc(C#N)cc1Cn1c(Nc2cc3cn(C)nc3cc2Cl)nc(=O)n(-c2cncc(C)c2)c1=O` [II-0594], the IC50 was 270 nM.
The molecule `O=c1[nH]cccc1Cn1c(=O)nc(NC23CC(Nc4ccccn4)(C2)C3)n(Cc2cc(F)c(F)c(F)c2)c1=O` [II-0476] showed a concentration for half-maximal inhibition (IC50) of under 100 nM.
`Cc1nc2cc(Cl)c(Nc3nc(=O)n(Cc4cc(Cl)c[nH]c4=O)c(=O)n3Cc3cc(F)c(F)c(F)c3)cc2n1C` [Compound I-0078] came in with an IC50 of under 100 nM.
With `Cn1cnc(Cn2c(=O)nc(Nc3cc4cn(CC(F)F)nc4cc3Cl)n(Cc3cc(Cl)c(F)cn3)c2=O)n1` [II-0540], the IC50 is under 100 nM.
On to `Cc1cncc(-n2c(=O)nc(Nc3ccc(N=S4(=O)CCCC4)c(Cl)c3Cl)n(Cc3cc(Cl)ccc3C)c2=O)c1` [II-0617], for which the IC50 is under 100 nM.
Then `CC(=O)Nc1nc2cc(F)c(Nc3nc(=O)n(Cc4ncn(C)n4)c(=O)n3Cc3cc(F)c(F)c(Cl)c3)cc2s1` [II-0012], with under 100 nM; and `Cc1cncc(-n2c(=O)nc(Nc3cc4sc(NCC5CC5)nc4cc3Cl)n(Cc3ccc(F)c(C#N)c3)c2=O)c1` [II-0081], with under 100 nM.
Take `CN(C)C(=O)Cn1cc2cc(Nc3nc(=O)n(Cc4ncn(C)n4)c(=O)n3Cc3cc(F)c(F)cc3F)c(Cl)cc2n1` [II-0280]: the IC50 was under 100 nM.
With `Cc1cn2cc(Nc3nc(=O)n(Cc4ccc[nH]c4=O)c(=O)n3Cc3cc(F)c(F)c(F)c3)c(Cl)cc2n1` [Compound I-0441], the IC50 was under 100 nM.
The molecule `Cn1cc2cc(Nc3nc(=O)n(Cc4nc[nH]n4)c(=O)n3Cc3cc(F)c(F)cc3F)c(Cl)cc2n1` [II-0091] showed an IC50 of under 100 nM.
For `Cc1cncc(-n2c(=O)nc(Nc3cc4sc(NS(C)(=O)=O)nc4cc3Cl)n(Cc3ccc(F)c(C#N)c3)c2=O)c1` [II-0427], the IC50 is under 100 nM.
For the molecule `Cn1cnc(Cn2c(=O)nc(Nc3cc4cn(CC(F)F)nc4cc3Cl)n(Cc3ccc(F)c(C#N)c3)c2=O)n1` [II-0549], the IC50 is under 100 nM.
Then `Cn1cnc(Cn2c(=O)nc(Nc3cc4cn([C@H]5CC[C@H](N)CC5)nc4cc3Cl)n(Cc3cc(Cl)c(F)cc3F)c2=O)n1` [II-0531], with under 100 nM; and `CNC(=O)Cn1c(=O)nc(Nc2cc3sc(C)nc3cc2C)n(Cc2cc(F)c(F)c(F)c2)c1=O` [Compound I-0479], with 1000 to 10000 nM; and `Cc1cnn(Cc2cc(F)c(F)cc2Cn2c(Nc3cc4cn(C)nc4cc3Cl)nc(=O)n(Cc3ncn(C)n3)c2=O)c1` [II-0637], with under 100 nM.
Next, `Cn1cnc(Cn2c(=O)cc(Nc3cc4cn(C)nc4cc3Cl)n(Cc3ccc(F)c(C#N)c3)c2=O)n1` [II-0379]: under 100 nM; `COc1ccc(Nc2nc(=O)n(Cc3cc(=O)[nH][nH]c3=O)c(=O)n2Cc2cc(F)c(F)c(F)c2)cc1` [Compound I-0102]: 850 nM and 100 to 1000 nM.
Turning to `Cn1cnc(Cn2c(=O)nc(Nc3cc4cn(CC(=O)N5CCCCC5)nc4cc3Cl)n(Cc3cc(F)c(F)c(Cl)c3)c2=O)n1` [II-0142], the concentration for half-maximal inhibition (IC50) was under 100 nM.
Then `COc1ccc(Nc2nc(=O)n(Cc3cn(CCO)cn3)c(=O)n2Cc2cc(F)c(F)c(F)c2)cc1` [Compound I-0415], with 3000 nM and 1000 to 10000 nM; and `Cn1cnc(Cn2c(=O)nc(Nc3cc4cn(CC(=O)N5CCCC5)nc4cc3Cl)n(Cc3cc(F)c(F)c(Cl)c3)c2=O)n1` [II-0147], with under 100 nM.
In turn, `O=C(O)COc1ccc(Nc2nc(=O)n(Cc3ccc[nH]c3=O)c(=O)n2Cc2cc(F)c(F)c(F)c2)c(Cl)c1` [Compound I-0464] registered an IC50 of under 100 nM.
With `Cc1cncc(-n2c(=O)nc(Nc3cc(C)c(N=S4(=O)CCCC4)cc3Cl)n(Cc3cc(Cl)ccc3C)c2=O)c1` [II-0623], the IC50 was under 100 nM.
Then `COc1ccc(Nc2nc(=O)n(Cc3ncn(C)n3)c(=O)n2C2(c3ccc(F)c(F)c3)CC2)cc1` [II-0644], with 3500 nM; and `Cc1cc(C)nc(NC23CC(Nc4nc(=O)n(Cc5ccc[nH]c5=O)c(=O)n4Cc4cc(F)c(F)c(F)c4)(C2)C3)n1` [II-0627], with under 100 nM; and `Cn1cnc(Cn2c(=O)nc(Nc3cc4cn(CC(=O)N5CCC5)nc4cc3Cl)n(Cc3cc(Cl)c(F)cc3F)c2=O)n1` [II-0149], with under 100 nM.
`Cc1cncc(-n2c(=O)nc(Nc3cc4c(=O)n(C)cnc4cc3F)n(Cc3ccc(F)c(C#N)c3)c2=O)c1` [II-0480] gave an IC50 of under 100 nM.
Molecule `O=c1[nH]cccc1Cn1c(=O)nc(NC(c2ccccc2)c2ccccc2O)n(Cc2cc(F)c(F)c(F)c2)c1=O` (centres unmarked) [II-0229] yielded an IC50 of 250 nM.
`CNc1nc2cc(Cl)c(Nc3nc(=O)n(Cc4ncn(C)n4)c(=O)n3Cc3ccc(F)c(C#N)c3)cc2s1` [II-0603] yielded an IC50 of under 100 nM.
Next, `Cn1cnc(Cn2c(=O)nc(Nc3cc4cn(C)nc4cc3Cl)n(Cc3cc(Cl)cc(F)c3OCCO)c2=O)n1` [II-0642]: under 100 nM.
Then `CC(=O)NCCn1cc2cc(Nc3nc(=O)n(Cc4ccc[nH]c4=O)c(=O)n3Cc3cc(F)c(F)c(F)c3)c(Cl)cc2n1` [Compound I-0449], with under 100 nM; and `Cn1cnc(Cn2c(=O)nc(Nc3cc4cn(C)nc4cc3Cl)n(Cc3cc(F)c(F)cc3C(F)(F)F)c2=O)n1` [II-0634], with under 100 nM.
Then `Cc1cncc(-n2c(=O)nc(Nc3cc(F)c(N=S4(=O)CCCC4)cc3Cl)n(Cc3cc(Cl)ccc3C)c2=O)c1` [II-0620], with under 100 nM.
`COCCN(C)C(=O)Cn1cc2cc(Nc3nc(=O)n(Cc4ncn(C)n4)c(=O)n3Cc3cc(F)c(F)c(Cl)c3)c(Cl)cc2n1` [II-0141] showed an IC50 of under 100 nM.
`CN(C)C(=O)CCn1cc2cc(Nc3nc(=O)n(Cc4ncn(C)n4)c(=O)n3Cc3cc(Cl)c(F)cc3F)c(Cl)cc2n1` [II-0338] displayed an IC50 of under 100 nM.
Then `Cc1nc2cc(Cl)c(Nc3nc(=O)n(Cc4ccc[nH]c4=O)c(=O)n3Cc3cc(F)c(F)c(F)c3F)cc2n1C` [Compound I-0265], with under 100 nM; and `CNC(=O)COc1ccc(Nc2nc(=O)n(Cc3ccc[nH]c3=O)c(=O)n2Cc2cc(F)c(F)c(F)c2)c(Cl)c1` [Compound I-0463], with under 100 nM.
Next, `CCNc1nc2cc(Cl)c(Nc3nc(=O)n(Cc4ncn(C)n4)c(=O)n3Cc3cc(Cl)c(F)cn3)cc2s1` [II-0340]: under 100 nM.
Regarding `COc1ccc(Nc2nc(=O)n(Cc3ccc[nH]c3=O)c(=O)n2C2CCc3cc(F)c(F)cc32)cc1` (racemic) [Compound I-0258], the IC50 was 3500 nM and 1000 to 10000 nM.
In turn, `Cn1cnc(Cn2c(=O)nc(NC34CC(Nc5ncc6ccccc6n5)(C3)C4)n(Cc3cc(F)c(F)c(F)c3)c2=O)n1` [II-0472] had an IC50 of under 100 nM.
`Cn1cnc(Cn2c(=O)nc(Nc3cc4cn(C)nc4cc3Cl)n(Cc3c4ccccc4cc4ccccc34)c2=O)n1` [II-0225] gave an IC50 of 2700 nM.
Then `Cc1nc2cc(Cl)c(Nc3nc(=O)n(Cc4ccc[nH]c4=O)c(=O)n3Cc3ccc(F)c(C#N)c3)cc2n1C` [Compound I-0266], with under 100 nM; and `Cn1cnc(Cn2c(=O)nc(Nc3cc4cn(C)nc4cc3Cl)n(Cc3cc(Cl)cc(F)c3F)c2=O)n1` [II-0641], with under 100 nM; and `CC(C)(C)OC(=O)NC12CC(Nc3nc(=O)n(Cc4ccc[nH]c4=O)c(=O)n3Cc3cc(F)c(F)c(F)c3)(C1)C2` [II-0209], with under 100 nM.
Next, `Cn1cnc(Cn2c(=O)nc(Nc3cc4cn(CC(=O)O)nc4cc3Cl)n(Cc3cc(Cl)c(F)cc3F)c2=O)n1` [II-0319]: under 100 nM; `O=c1[nH]cccc1Cn1c(=O)nc(NC23CC(Nc4ncccn4)(C2)C3)n(Cc2cc(F)c(F)c(F)c2)c1=O` [II-0443]: under 100 nM; `CCn1cc2cc(Nc3nc(=O)n(Cc4ncn(C)n4)c(=O)n3Cc3cc(Cl)c(F)cn3)c(Cl)cc2n1` [II-0268]: under 100 nM.

What is called IC50 is the concentration needed to halve the response being measured. Read a high IC50 as weaker potency.

Values taken from patent US12559474B2, “Triazine derivatives having virus replication inhibitory activity and pharmaceutical composition comprising the same” (priority 2021, dated 2026).
